{"source": "patent US20030134892A1", "about": "“Compositions for treatment of head and neck cancers, and methods of making and using the same” (priority 2001, published 2003)", "key": {"JHU012 cells": {"system": "JHU012 cells", "experiment": "Experiment 1: human orthotopic squamous cell head and neck cancer model, tumor size after treatment", "assay_type": "in vivo, Nu/nu mice", "settings": "45 days following treatment", "procedure": "The efficacy of paclitaxel microsphere formulations in human orthotopic squamous cell head and neck cancer models were tested below.\nNu/nu mice were injected with 1×10^7 JHU012 cells into the anterior floor of mouth near the genial tubercle of the mandible. 12 days following cell injection, the tumors were approximately 80 mm^3. […] 45 days following treatment, the animals were sacrificed and tumors measured again."}, "[1]": {"system": "human head and neck cancer cell line", "experiment": "Experiment 2: human tumor model with radiation, orthotopic tumor in the neck of a nude mouse", "assay_type": "in vivo", "settings": "injected intratumorally three week post cell injection, followed by fractionated radiation (RT) 2 gy/day for 4 days", "procedure": "In this study, the model is also a human head and neck cancer cell line but the tumor was grown orthotopically in the neck of a nude mouse. Three week post cell injection the tumors were injected intratumorally with paclimer and then followed by fractionated radiation, 2 gy/day for 4 days."}}, "data": [{"smiles": "O=c1[nH]cc(F)c(=O)[nH]1", "note": "[5-fu, 5-fluorouracil]", "values": [{"measurement": "Tumor Size at end of Experiment 1", "setting": "JHU012 cells; 0.15 mmol/kg/day oral, 4 days", "result": "518.7 ± 96.3", "unit": "mm^3"}]}, {"smiles": "CC(=O)O[C@H]1C(=O)[C@@]2(C)[C@H]([C@H](OC(=O)c3ccccc3)[C@]3(O)C[C@H](OC(=O)[C@H](O)[C@@H](NC(=O)c4ccccc4)c4ccccc4)C(C)=C1C3(C)C)[C@]1(OC(C)=O)CO[C@@H]1C[C@@H]2O", "note": "[ptx, paclitaxel]", "values": [{"measurement": "Tumor Size at end of Experiment 1", "setting": "JHU012 cells; 24 mg/kg i.p., tumors approx. 80 mm^3 at treatment", "result": "973.3 ± 91.7", "unit": "mm^3"}, {"measurement": "Tumor Size", "setting": "[1]", "result": "102.3 ± 37.0", "unit": "mm^3"}]}]}
